PMC6234764, “First Insights Into Within Host Translocation of the Bacillus cereus Toxin Cereulide Using a Porcine Model” (Frontiers in Microbiology, 2018)

Experiments:
[1] = system: Peripheral blood mononuclear cells (PBMC); experiment: Flow cytometric analysis of PBMC populations; assay type: in vivo, pig
Method: Peripheral blood mononuclear cells (PBMC) were isolated from heparin-stabilized blood samples (5–8 mL) using Ficoll-Hypaque (PAA, Austria) density centrifugation as described elsewhere ([Saalmüller et al., 1987]). For flow cytometric (FCM) analysis PMBCs were labeled with monoclonal antibodies as indicated in Supplementary Table S1 and stained with the respective isotype-specific conjugates. For analysis of regulatory T cells, cells were fixed and permeabilized by using Foxp3 Staining Buffer Set (eBioscience) in accordance with the manufacturer‘s instructions or for B cells by a FormSap-F&P permeabilization and fixation protocol as described previously ([Gerner et al., 2008]; [Käser et al., 2008]). Samples were analyzed immediately after the final washing steps. Flow cytometric analyses were performed on a FACSCantoII (BD Bioscience). 50,000 events were collected for each sample. Data were analyzed using FACSDiva software 6.1.3 (BD Bioscience) and FlowJo software 7.6.
Neg a tiv e c ontr ol - - - - Isoty p co ntr ol Ig G2b 1 Anti-Ig G2b-Alexa488 2 - - Isoty pe cont rol Isoty p co ntr ol Ig G 1 Anti-Ig G1-RPE 3 […]
T he lp er ce lls Anti-CD4 (74-12-4; IgG2b) 4 Anti-Ig G2b-Alexa488 2 - - NK ce lls Anti-CD3 (PPT3; IgG1) 5 Anti-Ig G1-RPE 3 […]

[2] = ref Ehling-Schulz et al., 2004, Rajkovic et al., 2008, cited from earlier work
From the text: The reported incidence of foodborne outbreaks caused by Bacillus toxins is steadily increasing worldwide throughout the last decade. For instance, in the European Union about 600–700 confirmed cases of foodborne outbreaks linked to B. cereus toxins are annually reported ([Messelhäußer and Ehling-Schulz, 2018]). Due to the rise of reports on severe intoxications, the Bacillus cereus toxin cereulide is of special concern. Cereulide is a small dodecadepsipeptide toxin that evokes emesis a short time after ingestion of contaminated food ([Agata et al., 1995]). Usally the disease is self limiting b ...

[3] = system: piglets; experiment: Histological examination of organs; assay type: in vivo, pig; conditions: pigs orally challenged with cereulide
Method: After oral administration of cereulide, piglets were monitored for unusual behavior and examined physically with special respect on rectal body temperature as well as pulse and respiration rate, every 2–3 h. Blood samples were taken from the Vena cava cranialis. Urine and feces were collected during the whole experiment and stored at -80°C. After the experiment pigs were anaesthetized by intramuscular injection of a bolus of ketamine (10 mg kg^-1) and azaperone (1.3 mg kg^-1). When sedation was deep enough cerebrospinal fluid (liquor) was taken by lumbar puncture. Finally, pigs were euthanized by intracardial injection of T61®. Animals were then necropsied and parts of the following organs, tissues or body fluids were taken for SIDA-MS analysis: liver, lung, heart, kidney, brain, spleen, small and large intestine, lymph nodes, gastric as well as intestinal contents, skeletal muscle, and abdominal and subcutaneous fat. Samples of liver, lung, heart, kidney, brain, spleen, small, and large intestine were collected for histological analysis.

CC(C)C[C@H]1OC(=O)[C@H](C(C)C)NC(=O)[C@H](C(C)C)OC(=O)[C@@H](C)NC(=O)[C@@H](CC(C)C)OC(=O)[C@H](C(C)C)NC(=O)[C@H](C(C)C)OC(=O)[C@@H](C)NC(=O)[C@@H](CC(C)C)OC(=O)[C@H](C(C)C)NC(=O)[C@H](C(C)C)OC(=O)[C@@H](C)NC1=O [cereulide]
Cell composition of PBMCs in comparison to control pigs ([1]; after oral administration of cereulide): no significant changes
Proportions of blood cell populations ([1]; daily oral dose 10 μg kg^-1 over 7 days): remained stable
Stability to enzymatic cleavage ([2]; gastro-intestinal passage): resistance to enzymatic cleavage
Temperature and pH stability [2]: high temperature and pH stability
Histological examinations of liver, lung, heart, kidneys, brain, spleen and gastrointestinal tract [3]: did not reveal any notable or specific pathological changes
